The subject of data set [1] is odor-causing gram positive bacteria. The note with it: cited from earlier work.
The conditions of data set [2]: 0.3% by weight in ethanol base deodorant, versus triclosan; cited from earlier work.
The conditions of data set [3]: cited from earlier work.
Data set [4] concerns Staphylococcus aureus (ATCC 6538). The data set can be described thus: Surviving microorganisms after direct inoculation of gel formula. Type of data set: cell-based. The protocol:
The antimicrobially synergistically effect of alpha bisabolol (Natural) for glyceryl monoalkyl ether was studied and the results are summarized in Tables 15 and 16, below. […] Subsequently the steareth-100, sodium stearate, and […] alcohol were added and the mixture cooled. […] The final compositions were then poured into containers and cooled to room temperature. […] Therefore following formula is gel type. Inoculate test microorganisms to provide a suspension containing from 105 to 106 microorganisms/ml and after 1 hr, 5 hr and 24 hr, check the surviving microorganisms by incubating in the soybean-casein digest agar for 24 hours at 32.5° C. the results are summarized below.

The structures appear in SMILES notation.

`CCCCC(CC)COCC(O)CO` (stereo not shown) [Ethylhexylglycerin]: the “anti-microbial activity against odor-causing gram positive bacteria” value in data set [1] is “very low”. Besides, in data set [2], the deodorant effectiveness entry is reported as “just as effective as 0.1% by weight triclosan”. Moreover, in data set [3] (against hydrolysis and elevated temperatures), the stability result is “rather stable”. In addition, the “solubility in fats and organic solvents” value in data set [3] (fats, alcohols, glycols and glycol ethers) is recorded as “completely soluble”. Moreover, the solubility in water in data set [3] (water) is recorded as 0.2%.
Turning to `CC(C)=CCC[C@](C)(O)[C@@H]1CC=C(C)CC1` [alpha bisabolol (Natural), alpha-bisabolol], in data set [4] (0.2% by weight, with no ethylhexylglycerin), the anti-microbial activity alone result is recorded as “no anti-microbial activity”. Also, in data set [4] (combination with ethylhexylglycerin), the “effect on the anti-microbial activity of ethylhexylglycerin” value was “surprising and unexpected synergistic effect”.

The record behind these values is patent publication US20050089488A1, “Deodorant composition with monocyclic, unsaturated sequiterpene alcohols and glyceryl monoalkyl ethers as synergistic active deodorant agents” (priority 2003, published 2005).
